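Compound exposure: 48 hours, 5 concentrations, 96-well plates. TGI: total growth inhibition.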
Experiments:
Assay in all cases: NCI tumour cell line growth inhibition, 48 h
786-0 renal = tested on: 786-0 renal
A498 renal = tested on: A498 renal
A549 NSCLC = tested on: A549 NSCLC
ACHN renal = tested on: ACHN renal
BT-549 breast = tested on: BT-549 breast
CAKI-1 renal = tested on: CAKI-1 renal
CCRF-CEM leukemia = tested on: CCRF-CEM leukemia
COLO 205 colon = tested on: COLO 205 colon
DU-145 prostate = tested on: DU-145 prostate
EKVX NSCLC = tested on: EKVX NSCLC
HCC-2998 colon = tested on: HCC-2998 colon
HCT-116 colon = tested on: HCT-116 colon
HCT-15 colon = tested on: HCT-15 colon
HL-60(TB) leukemia = tested on: HL-60(TB) leukemia
HOP-62 NSCLC = tested on: HOP-62 NSCLC
HOP-92 NSCLC = tested on: HOP-92 NSCLC
HT29 colon = tested on: HT29 colon
IGROV1 ovarian = tested on: IGROV1 ovarian
K-562 leukemia = tested on: K-562 leukemia
KM12 colon = tested on: KM12 colon
LOX IMVI melanoma = tested on: LOX IMVI melanoma
M14 melanoma = tested on: M14 melanoma
MALME-3M melanoma = tested on: MALME-3M melanoma
MCF7 breast = tested on: MCF7 breast
MDA-MB-231 breast = tested on: MDA-MB-231 breast
MDA-MB-435 = tested on: MDA-MB-435
MDA-N = tested on: MDA-N
MOLT-4 leukemia = tested on: MOLT-4 leukemia
NCI-H226 lung = tested on: NCI-H226 lung
NCI-H23 lung = tested on: NCI-H23 lung
NCI-H460 lung = tested on: NCI-H460 lung
NCI-H522 lung = tested on: NCI-H522 lung
NCI/ADR-RES ovarian = tested on: NCI/ADR-RES ovarian
OVCAR-3 ovarian = tested on: OVCAR-3 ovarian
OVCAR-4 ovarian = tested on: OVCAR-4 ovarian
OVCAR-5 ovarian = tested on: OVCAR-5 ovarian
OVCAR-8 ovarian = tested on: OVCAR-8 ovarian
PC-3 prostate = tested on: PC-3 prostate
RPMI-8226 leukemia = tested on: RPMI-8226 leukemia
RXF 393 renal = tested on: RXF 393 renal
SF-295 CNS = tested on: SF-295 CNS
SF-539 CNS = tested on: SF-539 CNS
SK-MEL-2 melanoma = tested on: SK-MEL-2 melanoma
SK-MEL-28 melanoma = tested on: SK-MEL-28 melanoma
SK-MEL-5 melanoma = tested on: SK-MEL-5 melanoma
SK-OV-3 ovarian = tested on: SK-OV-3 ovarian
SN12C renal = tested on: SN12C renal
SNB-19 CNS = tested on: SNB-19 CNS
SNB-75 CNS = tested on: SNB-75 CNS
SR leukemia = tested on: SR leukemia
SW-620 colon = tested on: SW-620 colon
U251 CNS = tested on: U251 CNS
UACC-257 melanoma = tested on: UACC-257 melanoma
UACC-62 melanoma = tested on: UACC-62 melanoma
UO-31 renal = tested on: UO-31 renal

Cc1cc2ccccc2oc(=O)/c1=N\Nc1ccccc1
TGI (786-0 renal): 97 µM | TGI (A498 renal): > 100 µM | TGI (A549 NSCLC): > 100 µM | TGI (ACHN renal): > 100 µM | TGI (BT-549 breast): > 100 µM | TGI (CAKI-1 renal): > 100 µM | TGI (CCRF-CEM leukemia): > 100 µM | TGI (COLO 205 colon): > 100 µM | TGI (DU-145 prostate): > 100 µM | TGI (EKVX NSCLC): > 100 µM | TGI (HCC-2998 colon): > 100 µM | TGI (HCT-116 colon): > 100 µM | TGI (HCT-15 colon): > 100 µM | TGI (HL-60(TB) leukemia): > 100 µM | TGI (HOP-62 NSCLC): 46.7 µM | TGI (HOP-92 NSCLC): > 100 µM | TGI (HT29 colon): > 100 µM | TGI (IGROV1 ovarian): > 100 µM | TGI (K-562 leukemia): > 100 µM | TGI (KM12 colon): > 100 µM | TGI (LOX IMVI melanoma): > 100 µM | TGI (M14 melanoma): > 100 µM | TGI (MALME-3M melanoma): > 100 µM | TGI (MCF7 breast): > 100 µM | TGI (MDA-MB-231 breast): 77.9 µM | TGI (MDA-MB-435): > 100 µM | TGI (MDA-N): > 100 µM | TGI (MOLT-4 leukemia): > 100 µM | TGI (NCI-H226 lung): > 100 µM | TGI (NCI-H23 lung): > 100 µM | TGI (NCI-H460 lung): > 100 µM | TGI (NCI-H522 lung): > 100 µM | TGI (NCI/ADR-RES ovarian): > 100 µM | TGI (OVCAR-3 ovarian): > 100 µM | TGI (OVCAR-4 ovarian): > 100 µM | TGI (OVCAR-5 ovarian): > 100 µM | TGI (OVCAR-8 ovarian): > 100 µM | TGI (PC-3 prostate): > 100 µM | TGI (RPMI-8226 leukemia): > 100 µM | TGI (RXF 393 renal): 88.4 µM | TGI (SF-295 CNS): > 100 µM | TGI (SF-539 CNS): > 100 µM | TGI (SK-MEL-2 melanoma): > 100 µM | TGI (SK-MEL-28 melanoma): > 100 µM | TGI (SK-MEL-5 melanoma): > 100 µM | TGI (SK-OV-3 ovarian): 62.8 µM | TGI (SN12C renal): > 100 µM | TGI (SNB-19 CNS): > 100 µM | TGI (SNB-75 CNS): 63.8 µM | TGI (SR leukemia): > 100 µM | TGI (SW-620 colon): > 100 µM | TGI (U251 CNS): > 100 µM | TGI (UACC-257 melanoma): > 100 µM | TGI (UACC-62 melanoma): > 100 µM | TGI (UO-31 renal): > 100 µM
